Values joined by “and” are separate entries in the source; they are usually repeats but may differ in a detail not shown here. Equal values may be shown once. Read-outs that look alike come from different tables or passages of the source.
Experiments:
[1] = test system: MCF-7 human breast adenocarcinoma cells; assay: MTT cytotoxicity assay, MCF-7 cells; type: cell-based; details: for IC50: MTT, read-out: IC50
Description: (§1) For cytotoxicity experiments, cancer cells were seeded at a density of 5,000 (MCF-7), 10,000 (HL-60) or 2,000 cells/well (HCT116 and A549) in 96-well plates (TPP) for 24 h/37°C prior to the addition of examined agents. The non-cancerous cells, 3T3 and H9c2 cells, were cultured for 24 h/37°C in 96-well plates at a density of 10,000 cells/well, the medium was then changed to serum- and pyruvate-free DMEM (Sigma-Aldrich) and incubated with the cells for another 24 h/37°C. The cytotoxic effects of Bp4eT and its metabolites were studied at different concentrations after a 72 h/37°C incubation. In order to aid the dissolution of the lipophilic ligands, 0.1% dimethyl sulfoxide (v/v) (DMSO; Sigma-Aldrich) was present in the culture medium of all groups. At this concentration, DMSO had no effect on cellular proliferation or viability.
(§2) The viability of cells were determined using an MTT assay (Sigma-Aldrich) according to previously established methods. The optical density of soluble MTT was measured at λ = 570 nm, subtracting the λ = 690 nm background using a Tecan Infinite 200M plate reader (Tecan Group, Männedorf, Switzerland). The viability or proliferation of experimental groups was expressed as a percentage of the untreated controls (100%).
(§3) SigmaStat for Windows 3.5 (Systat Software, San Jose, CA, USA) statistical software package was utilized to analyze results. The data are expressed as the mean ± SD of a given number of experiments. Statistical significance was determined using a one-way ANOVA with a Bonferroni post-hoc test or Student’s t-test. The results were considered to be statistically significant when p < 0.05. The IC50 values were calculated using CalcuSyn 2.0 software (Biosoft, Cambridge, UK). Cell cycle analysis was evaluated using MultiCycle AV Software (Phoenix Flow Systems, San Diego, CA, USA).

[2] = test system: A549 human lung adenocarcinoma cells; assay: MTT cytotoxicity assay, A549 cells; type: cell-based; details: for IC50: MTT
Description: as §1, §2, §3

[3] = test system: cancer cells (HL-60, MCF-7, HCT116, A549) and non-cancerous cells (H9c2, 3T3); assay: MTT cytotoxicity assay, summary over the cell line panel; type: cell-based; details: HL-60, MCF-7, HCT116, A549; 72 h; read-out: IC50, range over cancer cells
Description: as §1, §2, §3

MCF-7 cells = assay: Cellular 59Fe uptake from 59Fe2-transferrin; type: cell-based, human; design: key to Uptake 59Fe, Ave / Uptake 59Fe: % of internalized 59Fe in untreated control cells
Method in brief: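 Confluent MCF-7 cells were incubated 3 h at 37°C with 0.75 μM ⁵⁹Fe₂-transferrin (500 pCi/pmol Fe) plus chelator at 25 μM. Membrane-bound ⁵⁹Fe was released with Pronase (1 mg/mL, 30 min, 4°C). Pronase-insensitive internalized ⁵⁹Fe was expressed as % of untreated control.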

[4] = Viability (viabilita) used to normalise caspase activity; type: cell-based, human; details: human, MCF-7 cells, kontrola = 100;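 also: compound tested at 100 nM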
Excerpt: Supplement pone.0139929.s002.zip/caspases activity.xlsx, sheet "results_viability"

Compound: CCN=CNN=C(c1ccccc1)c1ccccn1 [Bp4eA, N ^3-ethyl-N ^1-[phenyl(pyridin-2-yl)methylene]formamidrazone]
- Therapeutic index, IC50 non-cancerous cells / IC50 neoplastic cells ([1]; 3T3/MCF-7): 17.3
- Therapeutic index, IC50 non-cancerous cells / IC50 neoplastic cells ([1]; H9c2/MCF-7): 7.0
- IC50 ([1]; Homo sapiens, MCF7, 72 h, MCF-7, 72 h/37°C, mean ± SD, n ≥ 4): 59.4 ± 8.9 µM
- IC50 ([1]; Homo sapiens, MCF7, MCF-7, 5 000 b/j, průměr (mean)): 59.4 µM
- IC50 ([1]; Homo sapiens, MCF7, MCF-7, 5 000 b/j, single experiment (by date)): 69.9 µM
- IC50 ([1]; MCF-7, 5 000 b/j, single experiment (by date)): 48.9 µM and 62.4 µM and 56.6 µM
- MTT, value relative to 0 μM = 100 ([1]; MCF-7, 5 000 b/j, koncentrace 1 μM, průměr (mean)): 93.04
- MTT, value relative to 0 μM = 100 ([1]; MCF-7, 5 000 b/j, koncentrace 1 μM, single experiment (by date)): 90.8485 and 99.965 and 93.7506 and 93.1688 and 87.4567
- MTT, value relative to 0 μM = 100 ([1]; MCF-7, 5 000 b/j, koncentrace 3 μM, průměr (mean)): 85.43
- MTT, value relative to 0 μM = 100 ([1]; MCF-7, 5 000 b/j, koncentrace 3 μM, single experiment (by date)): 93.874 and 91.0261 and 71.3771
- MTT, value relative to 0 μM = 100 ([1]; MCF-7, 5 000 b/j, koncentrace 10 μM, průměr (mean)): 84.39
- MTT, value relative to 0 μM = 100 ([1]; MCF-7, 5 000 b/j, koncentrace 10 μM, single experiment (by date)): 92.9139 and 90.5956 and 78.0175 and 76.0291
- MTT, value relative to 0 μM = 100 ([1]; MCF-7, 5 000 b/j, koncentrace 30 μM, průměr (mean)): 81.82
- MTT, value relative to 0 μM = 100 ([1]; MCF-7, 5 000 b/j, koncentrace 30 μM, single experiment (by date)): 88.8876 and 87.4579 and 79.9984 and 70.9265
- MTT, value relative to 0 μM = 100 ([1]; MCF-7, 5 000 b/j, koncentrace 100 μM, průměr (mean)): 26.24
- MTT, value relative to 0 μM = 100 ([1]; MCF-7, 5 000 b/j, koncentrace 100 μM, single experiment (by date)): 35.9762 and 29.29 and 21.3398 and 22.2541 and 22.3478
- MTT, value relative to 0 μM = 100 ([1]; MCF-7, 5 000 b/j, koncentrace 300 μM, průměr (mean)): 16.91
- MTT, value relative to 0 μM = 100 ([1]; MCF-7, 5 000 b/j, koncentrace 300 μM, single experiment (by date)): 19.6559 and 17.473 and 16.628 and 13.8677
- MTT, value relative to 0 μM = 100 ([1]; MCF-7, 5 000 b/j, koncentrace 1000 μM, průměr (mean)): 14.02
- MTT, value relative to 0 μM = 100 ([1]; MCF-7, 5 000 b/j, koncentrace 1000 μM, single experiment (by date)): 14.4001 and 13.0033 and 14.9518 and 13.7358
- Therapeutic index, IC50 non-cancerous cells / IC50 neoplastic cells ([2]; 3T3/A549): 5.0
- MTT, relative to control (0 = 100) ([2]; A549, 2 000 b/j, 1 μM, průměr (mean), sheet Bp4eA): 94.41
- MTT, relative to control (0 = 100) ([2]; A549, 2 000 b/j, 1 μM, single experiment (date), sheet Bp4eA): 88.8209 and 94.4571 and 96.7337 and 97.6446
- MTT, relative to control (0 = 100) ([2]; A549, 2 000 b/j, 3 μM, průměr (mean), sheet Bp4eA): 94.09
- MTT, relative to control (0 = 100) ([2]; A549, 2 000 b/j, 3 μM, single experiment (date), sheet Bp4eA): 86.5333 and 93.7511 and 98.3115 and 97.7691
- MTT, relative to control (0 = 100) ([2]; A549, 2 000 b/j, 10 μM, průměr (mean), sheet Bp4eA): 92.78
- MTT, relative to control (0 = 100) ([2]; A549, 2 000 b/j, 10 μM, single experiment (date), sheet Bp4eA): 86.1682 and 92.0865 and 96.0506 and 96.8227
- MTT, relative to control (0 = 100) ([2]; A549, 2 000 b/j, 30 μM, průměr (mean), sheet Bp4eA): 91.20
- MTT, relative to control (0 = 100) ([2]; A549, 2 000 b/j, 30 μM, single experiment (date), sheet Bp4eA): 88.1425 and 87.7957 and 97.6861 and 91.1602
- MTT, relative to control (0 = 100) ([2]; A549, 2 000 b/j, 100 μM, průměr (mean), sheet Bp4eA): 77.56
- MTT, relative to control (0 = 100) ([2]; A549, 2 000 b/j, 100 μM, single experiment (date), sheet Bp4eA): 74.9089 and 76.0742 and 86.7011 and 72.5654
- MTT, relative to control (0 = 100) ([2]; A549, 2 000 b/j, 300 μM, průměr (mean), sheet Bp4eA): 45.10
- MTT, relative to control (0 = 100) ([2]; A549, 2 000 b/j, 300 μM, single experiment (date), sheet Bp4eA): 48.1515 and 41.8857 and 54.342 and 36.0376
- MTT, relative to control (0 = 100) ([2]; A549, 2 000 b/j, 1000 μM, průměr (mean), sheet Bp4eA): 7.31
- MTT, relative to control (0 = 100) ([2]; A549, 2 000 b/j, 1000 μM, single experiment (date), sheet Bp4eA): 9.28 and 7.437 and 7.169 and 5.37
- IC50 ([2]; A549, 2 000 b/j, single experiment (date), sheet Bp4eA): 183 µM and 273 µM and 169 µM
- Therapeutic index, IC50 non-cancerous cells / IC50 neoplastic cells ([2]; H9c2/A549): 2.0
- IC50 ([2]; Homo sapiens, A549, 72 h, A549, 72 h/37°C, mean ± SD, n ≥ 4): 207 ± 46.1 µM
- IC50 ([2]; Homo sapiens, A549, A549, 2 000 b/j, průměr (mean), sheet Bp4eA): 207 µM
- IC50 ([2]; Homo sapiens, A549, A549, 2 000 b/j, single experiment (date), sheet Bp4eA): 202 µM
- IC50 [3]: 52 to 207 µM
- Internalized 59Fe uptake, % of the control (MCF-7 cells; 25 μM, 3 h/37°C, MCF-7, 0.75 μM 59Fe2-Tf): comparable to the untreated control
- Uptake 59Fe, Ave (MCF-7 cells; average of all replicates, Control Ave = 100): 93.4629
- Uptake 59Fe (MCF-7 cells; single replicate (three per date), Control Ave = 100): 92.0297 and 96.1364 and 98.7564 and 74.0112 and 96.1871 and 80.6939 and 103.039 and 106.85
- viability at 3 h, 100 nM ([4]; 3 hodiny): 96.8%
- viability at 24 h, 100 nM ([4]; 24 hodin): 95.6%
- viability at 72 h, 100 nM ([4]; 72 hodin): 93%
